Target: T1, rat mGluR5 receptor (Rattus norvegicus, UniProt P31424)
T1 construct: expressed in transfected cells; host or cells: HEK-293
Experiment: [3H]-MPEP displacement binding assay, HEK-293 cell membranes expressing rat mGluR5
Details: for inhibition at 10 µM: 1 h, single point, @ 10 μm compound, Table 1A, read-out: PCT INHIB (%) @ 10 μm; for Ki: read-out: Median Ki
Procedure: MGluR5 expressing HEK-293 cells were scraped off a plate, transferred to centrifuge tubes and washed twice by centrifugation (2000 rpm for 10 minutes, at 4° C.) in buffer (50 mM Tris pH 7.5). The resulting pellets were aliquoted and stored at minus 80° C. On the day of assay, the cells were thawed on ice and re-suspended in buffer. The binding assay was performed in a 96 well microtiter plate in a total volume of […]. Non-specific binding was determined in the presence of 10 μM MPEP. The binding reaction included a final radioligand [^3H]-MPEP concentration of 4 nM and 12-25 μg membrane protein per well. Following a 60 minute incubation at room temperature, the reaction was terminated by the addition of ice cold buffer and rapid filtration through a GF/B filter that had been presoaked for 30 minutes in 0.5% PEI. Compounds were initially tested in a single point assay to determine percent inhibition at 10 μM.
Percent inhibition and Ki values were generated by GraphPad Prism and Excel Fit. IC50 values were calculated using GraphPad by fitting to a 1 or 2 site-binding model.
where [L] is the concentration of free radioligand and Kd is the dissociation constant of radioligand for the receptor.

T1 sequence (P31424 21-1203): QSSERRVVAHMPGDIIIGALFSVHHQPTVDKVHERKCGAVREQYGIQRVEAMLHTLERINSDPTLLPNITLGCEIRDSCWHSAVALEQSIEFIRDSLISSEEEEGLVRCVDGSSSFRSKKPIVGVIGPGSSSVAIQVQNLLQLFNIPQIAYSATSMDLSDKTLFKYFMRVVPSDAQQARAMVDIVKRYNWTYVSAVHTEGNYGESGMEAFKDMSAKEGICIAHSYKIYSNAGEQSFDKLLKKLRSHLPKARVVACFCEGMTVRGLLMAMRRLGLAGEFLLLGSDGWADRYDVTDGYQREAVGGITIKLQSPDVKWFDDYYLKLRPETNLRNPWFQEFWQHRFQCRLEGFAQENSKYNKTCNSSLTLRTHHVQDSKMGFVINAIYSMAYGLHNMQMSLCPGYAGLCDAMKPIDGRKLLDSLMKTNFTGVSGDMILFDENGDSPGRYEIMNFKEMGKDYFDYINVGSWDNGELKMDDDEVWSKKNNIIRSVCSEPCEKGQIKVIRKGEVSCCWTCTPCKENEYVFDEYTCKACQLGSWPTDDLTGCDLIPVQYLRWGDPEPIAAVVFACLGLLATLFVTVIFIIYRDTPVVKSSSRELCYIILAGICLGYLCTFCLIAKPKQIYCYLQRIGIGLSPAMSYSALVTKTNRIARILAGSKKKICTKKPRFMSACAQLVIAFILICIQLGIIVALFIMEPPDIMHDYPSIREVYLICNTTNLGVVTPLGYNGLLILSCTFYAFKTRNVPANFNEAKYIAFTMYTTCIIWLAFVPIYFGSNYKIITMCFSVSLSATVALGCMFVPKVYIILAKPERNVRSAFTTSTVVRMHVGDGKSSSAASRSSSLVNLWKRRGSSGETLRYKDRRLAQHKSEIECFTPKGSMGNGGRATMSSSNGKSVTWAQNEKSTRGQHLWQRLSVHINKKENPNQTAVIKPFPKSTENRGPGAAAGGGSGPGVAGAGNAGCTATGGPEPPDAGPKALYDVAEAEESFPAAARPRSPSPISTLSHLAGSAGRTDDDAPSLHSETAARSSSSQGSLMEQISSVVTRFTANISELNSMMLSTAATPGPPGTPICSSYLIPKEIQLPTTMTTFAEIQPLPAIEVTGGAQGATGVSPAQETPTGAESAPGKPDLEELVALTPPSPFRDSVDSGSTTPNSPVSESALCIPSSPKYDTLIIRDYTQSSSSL

Row | Structure (SMILES) | inhibition at 10 µM | Ki
1 | COc1cc(C#Cc2cc(C(=O)N3CCN(c4ccccn4)CC3)ccc2OC)cc(OC)c1 [Compound 20, 1-{3-[(3,5-dimethoxyphenyl)ethynyl]-4-methoxybenzoyl}-4-pyridin-2-ylpiperazine] | 0% | 
2 | COc1ccc(C(=O)N2CCN(c3ccccn3)CC2)cc1C#Cc1cc(F)cc(F)c1 [Compound 21, 1-{3-[(3,5-difluorophenyl)ethynyl]-4-methoxybenzoyl}-4-pyridin-2-ylpiperazine] | 79% | 1940 nM
3 | COc1ccc(C(=O)N2CCN(c3ccccn3)CC2)cc1C#Cc1cc(C)ccc1C [Compound 22, 1-{3-[(2,5-dimethylphenyl)ethynyl]-4-methoxybenzoyl}-4-pyridin-2-ylpiperazine] | 43% | 
4 | COc1ccc(C(=O)N2CCN(c3ccccn3)CC2)cc1C#Cc1cc(C)c(C)cc1C [Compound 23, 1-{4-methoxy-3-[(2,4,5-trimethylphenyl)ethynyl]benzoyl}-4-pyridin-2-ylpiperazine] | 0% | 
5 | Cc1ccc(C(=O)N2CCN(c3ccccn3)CC2)cc1C#CC1=CCCCC1 [Compound 24, 1-[3-(cyclohex-1-en-1-ylethynyl)-4-methylbenzoyl]-4-pyridin-2-ylpiperazine] | 71% | 1290 nM
6 | Cc1ccc(C(=O)N2CCN(c3ccccn3)CC2)cc1C#Cc1cc(F)cc(F)c1 [Compound 29, 1-{3-[(3,5-difluorophenyl)ethynyl]-4-methylbenzoyl}-4-pyridin-2-ylpiperazine] | 41% | 
7 | Cc1ccc(C)c(C#Cc2cc(C(=O)N3CCN(c4ccccn4)CC3)ccc2C)c1 [Compound 30, 1-{3-[(2,5-dimethylphenyl)ethynyl]-4-methylbenzoyl}-4-pyridin-2-ylpiperazine] | 55% | 3810 nM
8 | Cc1ccc(C(=O)N2CCN(c3ccccn3)CC2)cc1C#Cc1cccnc1 [Compound 32, 1-[4-methyl-3-(pyridin-3-ylethynyl)benzoyl]-4-pyridin-2-ylpiperazine] | 68% | 3110 nM
9 | COc1cc(C#Cc2cc(C(=O)N3CCN(c4ccccn4)CC3)ccc2C)cc(OC)c1 [Compound 40, 1-{3-[(3,5-dimethoxyphenyl)ethynyl]-4-methylbenzoyl}-4-pyridin-2-ylpiperazine] | 0% | 
10 | Cc1cc(C)c(C#Cc2cc(C(=O)N3CCN(c4ccccn4)CC3)ccc2C)cc1C [Compound 41, 1-{4-methyl-3-[(2,4,5-trimethylphenyl)ethynyl]benzoyl}-4-pyridin-2-ylpiperazine] | 0% | 
11 | COc1ccc(C(=O)N2CCN(c3ccccn3)CC2)cc1C#Cc1cc(C(F)(F)F)cc(C(F)(F)F)c1 [Compound 44, 1-(3-{[3,5-bis(trifluoromethyl)phenyl]ethynyl}-4-methoxybenzoyl)-4-pyridin-2-ylpiperazine] | 0% | 
12 | COc1ccc(C(=O)N2CCN(c3ccccn3)CC2)cc1C#Cc1ccncc1 [Compound 45, 1-[4-methoxy-3-(pyridin-4-ylethynyl)benzoyl]-4-pyridin-2-ylpiperazine] | 68% | 990 nM
13 | Cc1ccc(C(=O)N2CCN(c3ccccn3)CC2)cc1C#Cc1cccc(O)c1 [Compound 46, 3-({2-methyl-5-[(4-pyridin-2-ylpiperazin-1-yl)carbonyl]phenyl}ethynyl)phenol] | 71% | 1310 nM
14 | Cc1ccc(C(=O)N2CCN(c3ccccn3)CC2)cc1C#Cc1cc(C(F)(F)F)cc(C(F)(F)F)c1 [Compound 47, 1-(3-{[3,5-bis(trifluoromethyl)phenyl]ethynyl}-4-methylbenzoyl)-4-pyridin-2-ylpiperazine] | 0% | 
15 | Cc1ccc(C(=O)N2CCN(c3ccccn3)CC2)cc1C#Cc1ccncc1 [Compound 48, 1-[4-methyl-3-(pyridin-4-ylethynyl)benzoyl]-4-pyridin-2-ylpiperazine] | 49% | 

Further compounds by falling Ki, results first:

Row | inhibition at 10 µM | Ki | Structure (SMILES)
16 | 67% | 898 nM | COc1ccc(C(=O)N2CCN(c3ccccn3)CC2)cc1C#Cc1cccnc1 [Compound 35, 1-[4-methoxy-3-(pyridin-3-ylethynyl)benzoyl]-4-pyridin-2-ylpiperazine]
17 | 82% | 541 nM | COc1ccc(C(=O)N2CCN(c3ccccn3)CC2)cc1C#Cc1cccc(O)c1 [Compound 33, 3-({2-methoxy-5-[(4-pyridin-2-ylpiperazin-1-yl)carbonyl]phenyl}ethynyl)phenol]
18 | 79% | 474 nM | Cc1ccc(C(=O)N2CCN(c3ccccn3)CC2)cc1C#Cc1cccc(N)c1 [Compound 36, 3-({2-methyl-5-[(4-pyridin-2-ylpiperazin-1-yl)carbonyl]phenyl}ethynyl)aniline]
19 | 68% | 472 nM | Cc1cc(C#Cc2cc(C(=O)N3CCN(c4ccccn4)CC3)ccc2C)ccc1F [Compound 31, 1-{3-[(4-fluoro-3-methylphenyl)ethynyl]-4-methylbenzoyl}-4-pyridin-2-ylpiperazine]
20 | 81% | 469 nM | Cc1ccc(C(=O)N2CCN(c3ccccn3)CC2)cc1C#Cc1cccc(C(F)(F)F)c1 [Compound 27, 1-(4-methyl-3-{[3-(trifluoromethyl)phenyl]ethynyl}benzoyl)-4-pyridin-2-ylpiperazine]
21 | 63% | 452 nM | Cc1ccc(C(=O)N2CCN(c3ccccn3)CC2)cc1C#CCc1ccccc1 [Compound 25, 1-[4-methyl-3-(3-phenylprop-1-yn-1-yl)benzoyl]-4-pyridin-2-ylpiperazine]
22 | 86% | 322 nM | COc1cccc(C#Cc2cc(C(=O)N3CCN(c4ccccn4)CC3)ccc2C)c1 [Compound 26, 1-{3-[(3-methoxyphenyl)ethynyl]-4-methylbenzoyl}-4-pyridin-2-ylpiperazine]
23 | 62% | 299 nM | COc1ccc(C(=O)N2CCN(c3ccccn3)CC2)cc1C#Cc1cccc(N)c1 [Compound 34, 3-({2-methoxy-5-[(4-pyridin-2-ylpiperazin-1-yl)carbonyl]phenyl}ethynyl)aniline]
24 | 82% | 278 nM | COc1ccc(C(=O)N2CCN(c3ccccn3)CC2)cc1C#Cc1cccc(C(F)(F)F)c1 [Compound 43, 1-(4-methoxy-3-{[3-(trifluoromethyl)phenyl]ethynyl}benzoyl)-4-pyridin-2-ylpiperazine]
25 | 90% | 171 nM | COc1ccc(C(=O)N2CCN(c3cnccn3)CC2)cc1C#CC1=CCCCC1 [Compound 50, 2-{4-[3-(cyclohex-1-en-1-ylethynyl)-4-methoxybenzoyl]piperazin-1-yl}pyrazine]
26 | 79% | 76 nM | Cc1ccc(C(=O)N2CCN(c3ccccn3)CC2)cc1C#Cc1cccc(Cl)c1 [Compound 28, 1-{3-[(3-chlorophenyl)ethynyl]-4-methylbenzoyl}-4-pyridin-2-ylpiperazine]
27 | 81% | 60.1 nM | COc1cccc(C#Cc2cc(C(=O)N3CCN(c4cnccn4)CC3)ccc2OC)c1 [Compound 52, 2-(4-{4-methoxy-3-[(3-methoxyphenyl)ethynyl]benzoyl}piperazin-1-yl)pyrazine]
28 | 83% | 57.1 nM | Cc1cccc(C#Cc2cc(C(=O)N3CCN(c4ccccn4)CC3)ccc2C)c1 [Compound 39, 1-{4-methyl-3-[(3-methylphenyl)ethynyl]benzoyl}-4-pyridin-2-ylpiperazine]
29 | 74% | 54.7 nM | COc1ccc(C(=O)N2CCN(c3ccccn3)CC2)cc1C#Cc1ccc(F)c(C)c1 [Compound 37, 1-{3-[(4-fluoro-3-methylphenyl)ethynyl]-4-methoxybenzoyl}-4-pyridin-2-ylpiperazine]
30 | 91% | 51 nM | COc1cccc(C#Cc2cc(C(=O)N3CCN(c4ccccn4)CC3)ccc2OC)c1 [Compound 17, 1-{4-methoxy-3-[(3-methoxyphenyl)ethynyl]benzoyl}-4-pyridin-2-ylpiperazine]
31 | 92% | 33.9 nM | COc1ccc(C(=O)N2CCN(c3cnccn3)CC2)cc1C#CCc1ccccc1 [Compound 51, 2-{4-[4-methoxy-3-(3-phenylprop-1-yn-1-yl)benzoyl]piperazin-1-yl}pyrazine]
32 | 95% | 8.63 nM | COc1ccc(C(=O)N2CCN(c3cnccn3)CC2)cc1C#Cc1cccc(C)c1 [Compound 53, 2-(4-{4-methoxy-3-[(3-methylphenyl)ethynyl]benzoyl}piperazin-1-yl)pyrazine]
33 | 99% | 6 nM | COc1ccc(C(=O)N2CCN(c3ccccn3)CC2)cc1C#Cc1cccc(C)c1 [Compound 18, 1-{4-methoxy-3-[(3-methylphenyl)ethynyl]benzoyl}-4-pyridin-2-ylpiperazine]
34 | 97% | 6 nM | COc1ccc(C(=O)N2CCN(c3ccccn3)CC2)cc1C#Cc1cccc(Cl)c1 [Compound 19, 1-{3-[(3-chlorophenyl)ethynyl]-4-methoxybenzoyl}-4-pyridin-2-ylpiperazine]
35 | 96% | 5.9 nM | Cc1ccc(C(=O)N2CCN(c3ccccn3)CC2)cc1C#Cc1ccccn1 [Compound 42, 1-[4-methyl-3-(pyridin-2-ylethynyl)benzoyl]-4-pyridin-2-ylpiperazine]
